Data set [1] concerns Rattus norvegicus. Description: Local anesthetic activity in rat assessed as frequency of motor activity block at 0.50 % injected around sciatic nerve. It counts as functional.
Data set [2] in a line: Toxicity in ip dosed rat. The note with it: in vivo. It counts as organism-based.
For data set [3], the system named is Rattus norvegicus. Description: Local anesthetic activity in rat assessed as time duration of motor activity block at 0.125 % injected around sciatic nerve. The data set is classed as functional.
The subject of data set [4] is Rattus norvegicus. The data set can be described thus: Local anesthetic activity in rat assessed as frequency of motor activity block at 0.25 % injected around sciatic nerve. The data set is classed as functional.
Data set [5] has as its system Rattus norvegicus. The data set can be described thus: Local anesthetic activity in rat assessed as time duration of motor activity block at 2 % injected around sciatic nerve. It counts as functional.
Data set [6] concerns Rattus norvegicus. Description: Local anesthetic activity in rat assessed as time duration of motor activity block at 1 % injected around sciatic nerve. The data set is classed as functional.
In data set [7] the test system is Rattus norvegicus. Description: Local anesthetic activity in rat assessed as time duration of motor activity block at 0.25 % injected around sciatic nerve. The data set is classed as functional.
Data set [8] relates to Rattus norvegicus. Description: Local anesthetic activity in rat assessed as time duration of motor activity block at 0.50 % injected around sciatic nerve. It counts as functional.
The subject of data set [9] is Rattus norvegicus. The data set can be described thus: Local anesthetic activity in rat assessed as frequency of motor activity block at 0.125 % injected around sciatic nerve. The data set is classed as functional.
Data set [10] is described as follows: Ionization constant, pKa of the compound. The data set is classed as physicochemical.
The subject of data set [11] is Rattus norvegicus. The data set can be described thus: Local anesthetic activity in rat assessed as frequency of motor activity block at 1 % injected around sciatic nerve. The data set is classed as functional.
In data set [12] the test system is Rattus norvegicus. Description: Local anesthetic activity in rat assessed as frequency of motor activity block at 2 % injected around sciatic nerve. It counts as functional.

In general, LD50 refers to the dose expected to kill half of the subjects tested. One may read the pKa as the pH at which an ionisable group is half protonated. On to `CCN(CC)C(C)C(=O)Nc1c(C)cccc1C` (stereo unspecified), for which the Activity in the data set with Rattus norvegicus [1], in the data set with Rattus norvegicus [4], with Rattus norvegicus [9], with Rattus norvegicus [11] and with Rattus norvegicus [12] was 100% in each case. Moreover, the LD50 in [2] is 89 mg/kg. Further, the Time in the data set on Rattus norvegicus [3] was determined as 82 min; in the data set on Rattus norvegicus [5], 160 min; with Rattus norvegicus [6], 114 min; with Rattus norvegicus [7], 92 min; in the data set on Rattus norvegicus [8], 104 min. In addition, the pKa in [10] came to 8.12.

Take `CCC(C(=O)Nc1c(C)cccc1C)N(CC)CC.Cl` (stereo unspecified): the Activity in the data set with Rattus norvegicus [1], in the data set with Rattus norvegicus [4], in the data set on Rattus norvegicus [9], with Rattus norvegicus [11] and in the data set with Rattus norvegicus [12] was 100% throughout. For the same compound, the median lethal dose (LD50) in [2] amounted to 54 mg/kg. The Time in the data set with Rattus norvegicus [3] stood at 156 min; with Rattus norvegicus [5], 318 min; in the data set with Rattus norvegicus [6], 308 min; with Rattus norvegicus [7] it was 235 min; in the data set with Rattus norvegicus [8], 297 min. The pKa in [10] amounted to 7.91.

`CCCC(C(=O)Nc1c(C)cccc1C)N(CC)CC.Cl` (stereo unspecified): the Activity with Rattus norvegicus [1], with Rattus norvegicus [4], with Rattus norvegicus [9], in the data set on Rattus norvegicus [11] and in the data set with Rattus norvegicus [12] was 100% in each case. Besides, the LD50 in [2] turned out to be 51 mg/kg. Besides, the Time in the data set on Rattus norvegicus [3] is 117 min; in the data set with Rattus norvegicus [5], 268 min; with Rattus norvegicus [6], 179 min; in the data set with Rattus norvegicus [7] it was 123 min; in the data set with Rattus norvegicus [8] it was 140 min. Besides, the pKa in data set [10] came to 7.89.

As to `CCCCC(C(=O)Nc1c(C)cccc1C)N(CC)CC.Cl` (stereo unspecified), the Activity in the data set on Rattus norvegicus [1] was determined as 100%; in the data set with Rattus norvegicus [4] it was 60%; in the data set on Rattus norvegicus [9] it was 80%; in the data set with Rattus norvegicus [11], 100%; with Rattus norvegicus [12], 80%. The same compound showed a 50% lethal dose (LD50) in [2] of 44 mg/kg. Besides, the Time in the data set on Rattus norvegicus [3] was determined as 92 min; in the data set with Rattus norvegicus [5] it was 246 min; in the data set with Rattus norvegicus [6] it was 196 min; in the data set on Rattus norvegicus [7] it was 111 min; with Rattus norvegicus [8], 119 min. For the same compound, the pKa in data set [10] came out at 7.81.

With `CCN(CC)CC(=O)Nc1c(C)cccc1C` [LIDOCAINE], the Activity with Rattus norvegicus [1], in the data set with Rattus norvegicus [4], with Rattus norvegicus [11] and with Rattus norvegicus [12] was 100% throughout. The Time in the data set with Rattus norvegicus [5] stood at 185 min; with Rattus norvegicus [6], 162 min; in the data set on Rattus norvegicus [7], 102 min; in the data set with Rattus norvegicus [8] it was 123 min.

These data come from ChEMBL document CHEMBL3272000, “Local anesthetics. 2-Diethylamino-2',6'-acylxylidides” (J Med Chem, 1976).
